Several values for one entry are separate records, joined by “and”; a condition that tells them apart may be missing. Identical values can stand only once. Like-named read-outs stand apart in the source and are kept apart here.
How the values were obtained:
[1] = target: T1, neuraminidase from Clostridium perfringens (Clostridium perfringens, UniProt A0A0H2YQR1); format: biochemical; settings: for Ki: Dixon plot, read-out: Ki (inhibition constant); for Inhibition Mode: Lineweaver–Burk plot; for IC50: fluorescent substrate 100 μM, 0.2 unit/mL enzyme, 50 mM sodium acetate buffer, read-out: IC50 against bacterial neuraminidase (BNA)
T1 sequence (A0A0H2YQR1 42-694 limits assumed): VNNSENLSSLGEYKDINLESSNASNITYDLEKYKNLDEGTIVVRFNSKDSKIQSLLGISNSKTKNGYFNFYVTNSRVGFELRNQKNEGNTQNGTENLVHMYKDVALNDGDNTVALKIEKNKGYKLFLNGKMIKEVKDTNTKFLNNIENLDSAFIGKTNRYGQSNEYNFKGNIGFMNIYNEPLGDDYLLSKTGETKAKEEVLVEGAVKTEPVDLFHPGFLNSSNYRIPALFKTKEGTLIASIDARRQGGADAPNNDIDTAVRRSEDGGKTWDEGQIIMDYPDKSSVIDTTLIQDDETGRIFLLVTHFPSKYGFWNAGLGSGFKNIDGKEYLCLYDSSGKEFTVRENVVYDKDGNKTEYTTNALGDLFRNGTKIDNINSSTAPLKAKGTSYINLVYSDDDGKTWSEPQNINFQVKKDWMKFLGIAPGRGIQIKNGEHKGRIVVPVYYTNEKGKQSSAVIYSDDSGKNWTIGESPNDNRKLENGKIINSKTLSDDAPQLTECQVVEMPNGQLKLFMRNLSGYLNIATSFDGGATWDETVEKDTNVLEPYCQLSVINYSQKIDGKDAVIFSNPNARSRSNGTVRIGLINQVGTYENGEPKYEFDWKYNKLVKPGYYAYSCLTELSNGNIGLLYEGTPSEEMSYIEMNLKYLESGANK

[2] = target: T1, neuraminidase from Clostridium perfringens; format: binding; settings: for KSV (Stern–Volmer quenching constant): excitation 290 nm, emission near 360 nm
[3] = fluorescence quenching, without substrate

Molecule: 3,7-O-dimethyl quercetin [Compound 3]
- Ki [1]: 22.4 ± 0.9 µM
- Inhibition Mode [1]: Noncompetitive
- IC50 [1]: 25.8 µM and 24.3 µM
- KSV (Stern–Volmer quenching constant) ([2]; without substrate): 1530 L/mol
- KA (binding constant) [2, 3]: 38180 L/mol
- n (number of binding sites) [2, 3]: 1.0959

Molecule: COc1cc(O)c2c(=O)c(OC)c(-c3ccc(OC)c(O)c3)oc2c1 [Compound 4, 3,7,4′-O-trimethyl quercetin]
- Inhibition Mode [1]: Noncompetitive
- KA (binding constant) [2]: 0.00021
- KSV (Stern–Volmer quenching constant) ([2]; without substrate): 360 L/mol
- n (number of binding sites) [2, 3]: 0.7071

Molecule: 3,4′-O-dimethyl quercetin [Compound 2]
- Ki [1]: 24.7 ± 0.5 µM
- Inhibition Mode [1]: Noncompetitive
- IC50 [1]: 24.3 µM and 25.8 µM
- KSV (Stern–Volmer quenching constant) ([2]; without substrate): 1440 L/mol
- KA (binding constant) [2, 3]: 39940 L/mol
- n (number of binding sites) [2, 3]: 1.1063

Molecule: COc1c(-c2ccc(O)c(O)c2)oc2cc(O)cc(O)c2c1=O [Compound 1, 3-O-methyl quercetin]
- Inhibition Mode [1]: Noncompetitive
- KA (binding constant) [2]: 0.05105
- KSV (Stern–Volmer quenching constant) ([2]; without substrate): 2520 L/mol
- n (number of binding sites) [2, 3]: 1.2106
